# Measurements as given in PubChem BioAssay (NCI).
# Several values for one entry are separate records, joined by “and”; a condition that tells them apart may be missing. Equal values may be shown once.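 Method: 48-hour compound exposure of cells in 96-well plates, five concentrations, linear interpolation of endpoints. Here, GI50 denotes the concentration required for 50% inhibition of growth. The concentration for full growth arrest is given as TGI.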
# Columns and labels:
# Assay in all cases: inhibition of tumour cell growth, NCI panel, 48 h
# CCRF-CEM leukemia = tested on: CCRF-CEM leukemia
# EKVX NSCLC = tested on: EKVX NSCLC
# MOLT-4 leukemia = tested on: MOLT-4 leukemia
# OVCAR-5 ovarian = tested on: OVCAR-5 ovarian
# SF-539 CNS = tested on: SF-539 CNS
# SK-MEL-5 melanoma = tested on: SK-MEL-5 melanoma
# SK-OV-3 ovarian = tested on: SK-OV-3 ovarian
# SNB-19 CNS = tested on: SNB-19 CNS
# SW-620 colon = tested on: SW-620 colon
# TK-10 renal = tested on: TK-10 renal
Structure (SMILES),GI50 (CCRF-CEM leukemia),TGI (CCRF-CEM leukemia),GI50 (EKVX NSCLC),TGI (EKVX NSCLC),GI50 (MOLT-4 leukemia),TGI (MOLT-4 leukemia),GI50 (OVCAR-5 ovarian),TGI (OVCAR-5 ovarian),GI50 (SF-539 CNS),TGI (SF-539 CNS),GI50 (SK-MEL-5 melanoma),TGI (SK-MEL-5 melanoma),GI50 (SK-OV-3 ovarian),TGI (SK-OV-3 ovarian),GI50 (SNB-19 CNS),TGI (SNB-19 CNS),GI50 (SW-620 colon),TGI (SW-620 colon),GI50 (TK-10 renal),TGI (TK-10 renal)
S=C1SCN(Cc2ccccc2)CN1Cc1ccccc1,1.15 µM,3.56 µM,21.2 µM,> 57.8 µM,1.44 µM,5.14 µM,25.7 µM,> 60.5 µM,17.2 µM,> 61.3 µM,13.6 µM,28.1 µM,98.7 µM,> 100 µM,> 54.7 µM,> 100 µM,3.02 µM,11.8 µM,3.68 µM,12.6 µM
CC(=O)Nc1ccc(OC(C)=O)cc1,< 0.01 µM,> 49.8 µM,3 µM,> 78.7 µM,< 0.01 µM,3.79 µM,< 0.01 µM,> 100 µM,< 0.01 µM,0.766 µM,< 0.01 µM,< 0.01 µM,< 0.01 µM,–,< 0.0126 µM,> 100 µM,< 0.01 µM,> 100 µM,10.7 µM,> 100 µM
Cc1ccc2[nH]c(C(=O)NN3C(=O)C(C)SC34CCC(C)CC4)c(-c3ccccc3)c2c1 (stereo unspecified),20.4 µM,79.6 µM,19.6 µM,56.1 µM,7.86 µM,32.2 µM,17 µM,34.6 µM,20.8 µM,45.6 µM,18.4 µM,36.3 µM,33.4 µM,> 100 µM,22.7 µM,62.4 µM,31.4 µM,82.6 µM,14.2 µM,29.6 µM
O=C(Nc1cn[nH]c1-c1nc2ccc(CN3CCOCC3)cc2[nH]1)NC1CC1,1.42 µM,8.69 µM,1.76 µM and > 10 µM,9.94 µM and > 10 µM,1.87 µM and 2.52 µM,5.4 µM and > 10 µM,2.78 µM and 6.68 µM,9.49 µM and > 10 µM,0.262 µM and 0.688 µM,1.35 µM and 3.7 µM,1.34 µM and 8.52 µM,3.68 µM and > 10 µM,0.375 µM and 0.299 µM,3.52 µM and 8.08 µM,1.16 µM and 2.62 µM,11.3 µM and > 10 µM,0.573 µM and 1.32 µM,11.5 µM and > 10 µM,1.24 µM and 5.07 µM,6 µM and > 10 µM
O=C1c2ccccc2C(=O)c2c1oc1c2c(=O)[nH]c2ccc(Cl)cc21,0.403 µM,4.66 µM,0.249 µM,2.44 µM,0.435 µM,3.14 µM,3.44 µM,14.7 µM,0.229 µM,0.566 µM,0.305 µM,1.21 µM,0.348 µM,1.78 µM,0.312 µM,1.1 µM,0.332 µM,1.01 µM,0.379 µM,1.1 µM
Cc1cc(=O)oc2cc3oc(N(C)c4ccccc4)nc(=O)c3cc12,–,> 100 µM,–,> 100 µM,–,> 100 µM,–,> 100 µM,–,> 100 µM,–,> 100 µM,–,> 100 µM,–,> 100 µM,–,> 100 µM,–,> 100 µM
Brc1ccc(C=NC23CC4CC(CC(C4)C2)C3)cc1,–,> 100 µM,–,> 100 µM,–,> 100 µM,–,> 100 µM,–,> 100 µM,–,> 100 µM,–,> 100 µM,–,> 100 µM,–,> 100 µM,–,> 100 µM
COc1cc2c(cc1O)c(=O)n(CCN(C)C)c1c3cc4c(cc3ncc21)OCO4,< 0.01 µM,> 26.8 µM,0.239 µM,3.66 µM,< 0.01 µM,0.0271 µM,0.325 µM,2.82 µM,< 0.01 µM,0.0223 µM,0.0121 µM,0.0312 µM,< 0.0106 µM,0.0876 µM,< 0.01 µM,5.3 µM,< 0.01 µM,> 33.2 µM,0.127 µM,0.524 µM
O=c1oc2ccc(Cl)cc2c(=O)n1-c1ccc(F)cc1F,3.32 µM,18.1 µM,1.98 µM,8.04 µM,2.33 µM,5.59 µM,3.43 µM,97.5 µM,1.68 µM,8.67 µM,1.11 µM,2.46 µM,1.12 µM,5.43 µM,2.27 µM,> 100 µM,3.12 µM,16.9 µM,5.55 µM,68.2 µM
CC1OC(CC(=O)O)Cc2c1c(O)c1c(O)cc(-c3cc(=O)c4c(=O)c5c(c(=O)c=4c3=O)CC(CC(=O)O)OC5C)c(O)c1c2O (stereo unspecified),–,> 48.2 µM,26.1 µM,18.3 µM and 74.5 µM,–,21.7 µM,53.1 µM,> 91.1 µM,59.3 µM,36 µM,60.9 µM,31.9 µM,48.8 µM,> 100 µM,66.6 µM,> 100 µM,22 µM,22.5 µM,34 µM,> 93 µM
CCc1cccc(NC(=O)Nc2ccc(Oc3ccc4nc(NC(=O)OC)[nH]c4c3)cc2)c1,6.2 µM,> 25 µM,> 23.9 µM,> 25 µM,10.4 µM,> 25 µM,15 µM,> 25 µM,5.08 µM,> 25 µM,1.29 µM,7.15 µM,4.99 µM,11.5 µM,10.1 µM,> 25 µM,3.05 µM,12.1 µM,6.61 µM,> 19.8 µM
O=[N+]([O-])c1cc(I)cc(/C=N/NS(=O)(=O)c2ccc(Cl)cc2)c1O,–,58.5 µM,–,83 µM,–,51.5 µM,–,71.6 µM,–,51.5 µM,–,36.9 µM,–,65 µM,–,> 100 µM,–,82.4 µM,–,74.4 µM
Cc1ccc2[nH]c(O)c(N=Nc3ccccc3[N+](=O)[O-])c2c1,–,> 100 µM,–,57.3 µM,–,> 100 µM,–,> 84.3 µM,–,4.78 µM,–,> 100 µM,–,14.2 µM,–,> 81.1 µM,–,> 100 µM,–,64.5 µM
CCCCc1n(Cc2ccc3ccccc3n2)cc[n+]1Cc1ccc2ccccc2n1,1.59 µM,13.9 µM,2.58 µM,20.2 µM,1.81 µM,11 µM,2.66 µM,13.7 µM,1.8 µM,12.6 µM,0.827 µM,2.21 µM,2 µM,7.23 µM,0.826 µM,12.9 µM,2.56 µM,13.7 µM,2.5 µM,10.3 µM
N#CC1(N2CCCC2)CCC2(CC1)OCCO2,–,> 100 µM,–,> 100 µM,–,> 100 µM,–,> 100 µM,–,> 100 µM,–,> 100 µM,–,> 100 µM,–,> 100 µM,–,> 100 µM,–,> 100 µM
COc1cc(NS(C)(=O)=O)ccc1Cc1c2ccccc2nc2ccccc12,0.042 µM,0.751 µM,0.993 µM,4.24 µM,–,0.0265 µM,1.03 µM,4.17 µM,0.118 µM,1.15 µM,0.121 µM,1.11 µM,0.115 µM,1.02 µM,0.134 µM,3.35 µM,0.121 µM,2.34 µM,0.228 µM,1.45 µM
CCN1C(=O)N(CC)C2C1NN=c1s/c(=C\c3ccc(C(F)(F)F)cc3)c(=O)n12 (stereo unspecified),0.328 µM,17 µM,0.521 µM,> 56.2 µM,0.417 µM,16.3 µM,0.619 µM,> 43.8 µM,0.247 µM,0.785 µM,0.488 µM,2.63 µM,0.492 µM,> 100 µM,0.647 µM,> 44.8 µM,0.406 µM,> 42.2 µM,2.23 µM,> 62.3 µM
Cc1ccc(-c2nc(/C=N/Nc3cc(C)nc4ccc(Br)cc34)c(C)o2)cc1,2.17 µM,5.51 µM,9.51 µM,21.4 µM,2.32 µM,5.13 µM,1.86 µM,3.36 µM,1.72 µM,3.18 µM,3.7 µM,13.6 µM,1.8 µM,3.29 µM,1.86 µM,3.48 µM,1.92 µM,3.68 µM,1.82 µM,3.29 µM
COc1cc2c(c(OC)c1OC)-c1c(c3ccc([N+](=O)[O-])cc3c(=O)n1CCCBr)C2=O,14.8 µM,> 100 µM,> 100 µM,> 100 µM,15.2 µM,> 100 µM,> 100 µM,> 100 µM,4.5 µM,17.9 µM,19.8 µM,65.8 µM,> 100 µM,> 100 µM,57.4 µM,> 100 µM,18.2 µM,> 100 µM,23.5 µM,90.2 µM
CCOC(=O)c1c2c(n3ccc(NC(=O)CCN4CCCCC4)cc13)C(=O)c1ncccc1C2=O,1.18 µM,3.68 µM,3.03 µM,8.47 µM,1.42 µM,4.04 µM,1.38 µM,3.2 µM,0.292 µM,2 µM,0.541 µM,1.98 µM,0.0953 µM,18.7 µM,1.06 µM,3.21 µM,0.0269 µM,2.38 µM,0.171 µM,2.25 µM
O=C(Nc1ccccc1Cl)c1ccc(NC2=C(Cl)C(=O)N(C3CCCCC3)C2=O)cc1,8.29 µM,33.5 µM,24.3 µM,53.1 µM,5.56 µM,20.4 µM,49.5 µM,128 µM,27.3 µM,58.5 µM,11.5 µM,40.3 µM,27.1 µM,65.2 µM,16.9 µM,38.5 µM,10.3 µM,30.2 µM,20.6 µM,44.3 µM
CCC[CH2][Sn]1([CH2]CCC)[O]CC[S]1,0.177 µM,0.814 µM,0.749 µM,2.1 µM,0.37 µM,2.4 µM,1.39 µM,2.72 µM,0.736 µM,2.03 µM,0.324 µM,1.15 µM,1.61 µM,2.96 µM,0.446 µM,1.6 µM,0.268 µM,1.11 µM,0.508 µM,1.39 µM
CC1=C2[C@@H](CC1)[C@]1(C)O[C@@](C(C)C)(C[C@H]1OC(=O)CO)[C@H]2OC(=O)CCCc1ccccc1,4.65 µM,34.7 µM,15 µM,30.8 µM,3.66 µM,15.2 µM,15.7 µM,30 µM,14.2 µM,27.5 µM,7.91 µM,20.3 µM,16.6 µM,30.6 µM,12.4 µM,24.9 µM,11 µM,25.4 µM,18.6 µM,32.8 µM
